In patent US20240228488A1 (TAKEDA PHARMACEUTICAL COMPANY LIMITED, priority 2021, published 2024) one finds EC50 data, which are given here for 10 molecules.

Broadly, the EC50 is the concentration needed to bring the measured effect to its halfway point.

Each structure is given as a SMILES string.

Chain of human activated kallikrein enzyme (P03952 391-638 limits assumed): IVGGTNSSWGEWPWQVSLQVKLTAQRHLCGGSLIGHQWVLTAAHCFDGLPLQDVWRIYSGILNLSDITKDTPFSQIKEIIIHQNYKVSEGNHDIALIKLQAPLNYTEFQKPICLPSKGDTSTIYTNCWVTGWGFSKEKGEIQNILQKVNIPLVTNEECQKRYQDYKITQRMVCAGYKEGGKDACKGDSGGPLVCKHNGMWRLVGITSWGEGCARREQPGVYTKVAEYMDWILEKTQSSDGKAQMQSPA
Chain of human activated kallikrein enzyme (P03952 20-390 partner limits assumed): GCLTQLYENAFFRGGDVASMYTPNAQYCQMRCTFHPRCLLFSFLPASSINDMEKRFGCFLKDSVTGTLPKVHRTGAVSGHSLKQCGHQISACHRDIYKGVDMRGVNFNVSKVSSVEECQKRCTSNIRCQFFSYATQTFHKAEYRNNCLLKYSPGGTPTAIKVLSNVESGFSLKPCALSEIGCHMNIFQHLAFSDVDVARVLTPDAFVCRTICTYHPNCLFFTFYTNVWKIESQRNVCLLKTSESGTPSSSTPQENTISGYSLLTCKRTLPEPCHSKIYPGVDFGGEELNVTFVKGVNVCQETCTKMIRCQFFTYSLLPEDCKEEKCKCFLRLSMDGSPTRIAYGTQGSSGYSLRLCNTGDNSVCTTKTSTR

The target of this test is human activated kallikrein enzyme (Homo sapiens, UniProt P03952). As to the kind of experiment: Plasma kallikrein inhibition, fluorogenic PFR-AMC substrate, 500 pM activated kallikrein format. The conditions noted are these: 500 pM activated kallikrein, 300 uM PFR-AMC, 30 min preincubation, 10 min reaction; read-out: Primary Dose Response Assay: Average EC50. Format: biochemical. In a few lines:
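Fluorogenic readout (ex 380 / em 460 nm) after 10 min room-temperature reaction with 300 uM Pro-Phe-Arg-AMC substrate, following 30 min preincubation of inhibitors with 500 pM enzyme. Buffer: Tris pH 7.5, EDTA, NaCl, PEG-400, Triton X-100. Values given as EC50 ranges.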
Take `O=C(Nc1cc(NCc2cn3cc(C4CC4)ccc3n2)ncn1)[C@H]1C[C@@H]1c1ccc(Cl)s1` (racemic) [Example I-185, rac-(1S*,2S*)-2-(5-chlorothiophen-2-yl)-N-(6-(((6-cyclopropylimidazo[1,2-a]pyridin-2-yl)methyl)amino)pyrimidin-4-yl)cyclopropane-1-carboxamide]: the EC50 fell in the range of 100 to 1000 nM.
In the case of `Cc1cc(NC(=O)[C@H]2C[C@@H]2c2nccc(C)n2)cc(N[C@H](C)c2cn3cc(C4CC4)cc(N4CC(=O)N(C)C4=O)c3n2)n1` [Example I-246, (1S,2S)-N-(2-(((R)-1-(6-cyclopropyl-8-(3-methyl-2,4-dioxoimidazolidin-1-yl)imidazo[1,2-a]pyridin-2-yl)ethyl)amino)-6-methylpyridin-4-yl)-2-(4-methylpyrimidin-2-yl)cyclopropane-1-carboxamide], the EC50 was less than 1 nM.
The same measure for `COCc1cnc(NC(=O)[C@H]2C[C@@H]2c2nccc(C)n2)nc1OCc1cn2cc(C3CC3)cc(N3CC(=O)N(C)C3=O)c2n1` [Example 663, (1S,2S)—N-(4-((6-cyclopropyl-8-(3-methyl-2,4-dioxoimidazolidin-1-yl)imidazo[1,2-a]pyridin-2-yl)methoxy)-5-(methoxymethyl)pyrimidin-2-yl)-2-(4-methylpyrimidin-2-yl)cyclopropane-1-carboxamide]: less than 1 nM.
With `Cc1ccnc([C@H]2C[C@@H]2C(=O)Nc2cc(C(O)Cc3cn4cc(C5CC5)cc(N5CC(=O)N(C)C5=O)c4n3)nc(C)n2)n1` (stereo partly drawn) [Example 674, (1S,2S)—N-(6-(2-(6-cyclopropyl-8-(3-methyl-2,4-dioxoimidazolidin-1-yl)imidazo[1,2-a]pyridin-2-yl)-1-hydroxyethyl)-2-methylpyrimidin-4-yl)-2-(4-methylpyrimidin-2-yl)cyclopropane-1-carboxamide], the EC50 fell in the range of 10 to 100 nM.
`N#Cc1ccc(Cl)cc1[C@@H]1C[C@H]1C(=O)Nc1cc(NCc2cn3cc(C4CC4)ccc3n2)cnn1` (racemic) [Example 102, rac-(1S*,2S*)-2-(5-chloro-2-cyanophenyl)-N-(5-(((6-cyclopropylimidazo[1,2-a]pyridin-2-yl)methyl)amino)pyridazin-3-yl)cyclopropane-1-carboxamide]: the EC50 was in the range of 1 to 10 nM.
With `O=C(Nc1cc(NCc2cn3cc(C4CC4)ccc3n2)ncn1)[C@@H]1[C@@H](c2cccc(Cl)c2)C1(F)F` (racemic) [Example 503, rac-(1S*,3S*)-3-(3-chlorophenyl)-N-(6-(((6-cyclopropylimidazo[1,2-a]pyridin-2-yl)methyl)amino)pyrimidin-4-yl)-2,2-difluorocyclopropane-1-carboxamide], the half-maximal effective concentration (EC50) lay within 1 to 10 nM.
The value for `Nc1c(Cl)cccc1[C@H]1C[C@@H]1C(=O)Nc1cc(NCc2cn3cc(C4CC4)ccc3n2)ncn1` (racemic) [Example 280, rac-(1S*,2S*)-2-(2-amino-3-chlorophenyl)-N-(6-(((6-cyclopropylimidazo[1,2-a]pyridin-2-yl)methyl)amino)pyrimidin-4-yl)cyclopropane-1-carboxamide] was more than 6000 nM; that for `Cc1ccnc([C@H]2C[C@@H]2C(=O)Nc2cc(O[C@H](C)c3cn4cc(C5CC5)cc(N5CC(=O)N(C)C5=O)c4n3)cnn2)n1` (single isomer, unassigned) [Example 42] was less than 1 nM; that for `O=C(Nc1cc(NCc2cn3cc(C4CC4)ccc3n2)ncn1)[C@H]1C[C@@H]1c1nccc(Cl)n1` (racemic) [Example I-177, rac-(1S*,2S*)-2-(4-chloropyrimidin-2-yl)-N-(6-(((6-cyclopropylimidazo[1,2-a]pyridin-2-yl)methyl)amino)pyrimidin-4-yl)cyclopropane-1-carboxamide] was less than 1 nM.
The same measure for `O=C(Nc1cncnc1NCc1cn2cc(C3CC3)ccc2n1)[C@H]1C[C@@H]1c1cccc(Cl)c1` (racemic) [Example 78, rac-(1S*,2S*)-2-(3-chlorophenyl)-N-(4-(((6-cyclopropylimidazo[1,2-a]pyridin-2-yl)methyl)amino)pyrimidin-5-yl)cyclopropane-1-carboxamide]: 100 to 1000 nM.
